Data reported in article PMC11732987, “Enantioselective OTUD7B fragment discovery through chemoproteomics screening and high-throughput optimisation” (Communications Chemistry, 2025).
pIC50: −log10 of the molar value.

Experiments:
[1] = biological target: T1, OTUD7B (Homo sapiens, UniProt Q6GQQ9); assay: Ub-Rho110Gly DUB activity assay; also intact protein LC-MS kinetics (kinact/KI […] ^-1 s^-1), SiteID LC-MS/MS, lysate ABPP (TE50 […]); format: biochemical; set-up: OTU domain; OTUD7B aa129-438 (intact protein LC-MS), aa129–538 (SiteID)
T1 sequence (Q6GQQ9 129-438): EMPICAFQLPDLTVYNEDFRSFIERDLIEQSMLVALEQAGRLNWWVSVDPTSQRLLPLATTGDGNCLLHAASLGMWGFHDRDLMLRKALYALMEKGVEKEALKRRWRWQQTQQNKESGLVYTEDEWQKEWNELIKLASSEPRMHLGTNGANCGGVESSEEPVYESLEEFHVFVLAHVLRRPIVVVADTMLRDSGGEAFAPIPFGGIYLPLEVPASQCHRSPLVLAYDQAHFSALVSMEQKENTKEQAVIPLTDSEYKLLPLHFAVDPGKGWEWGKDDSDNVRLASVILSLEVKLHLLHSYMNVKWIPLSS

[2] = biological target: T1, OTUD7B; assay: Ub-Rho110Gly DUB activity assay; also intact protein LC-MS kinetics (kinact/KI […] ^-1 s^-1), lysate ABPP (TE50 […]); format: biochemical; set-up: OTUD7B aa129-438 (intact protein LC-MS)

Compound	pIC50 [1]	pIC50 [2]
O=C(CCl)N[C@H]1CCCc2ccccc21 [compound 29]	5.46	–
O=C(CCl)N[C@@H]1CCCc2ccccc21 [compound 30]	–	4.23
